# Laboratory results reported in patent US20260042764A1, “COMPOSITIONS AND METHODS FOR INHIBITION OF KRAS” (TheRas, Inc., priority 2022, published 2026).
# Where two headings read alike, the source gives them in different places.
# Assays:
# [1] = tested on: MKN1 cells (KRAS amplification); assay: Cell-based pERK HTRF assay in MKN1 cells (Biological Example 5)
# Summary of the method: (§1)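 Cells seeded at 2.5×10^4/well in 10% FBS medium overnight, then treated 2 h at 37 °C with a 9-point, 3-fold compound series (0.25% DMSO). Lysates read by HTRF for pERK1/2 (Thr202/Tyr204), 665/620 nm ratio; EC50 from four-parameter fit.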
# RKN cells (KRAS G12V) [2] = assay: Cell-based pERK HTRF assay in RKN cells (Biological Example 5)
# Summary of the method: as §1
# [3] = tested on: Capan-2 cells (KRAS G12V); assay: 3D Cell viability assay in Capan-2 cells (Biological Example 6); type: cell-based; details: Homo sapiens; Capan-2 (KRAS G12V) spheroids, 72 hours
# Summary of the method: (§2)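 EC50 values come from a four-parameter variable-slope fit of CellTiter-Glo 3D luminescence in spheroid cultures treated 72 h with a nine-point, three-fold dilution series.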
# SW1900 cells (KRAS G12D) [4] = assay: Cell-based pERK HTRF assay in SW1900 cells (Biological Example 5)
# Summary of the method: as §1
# AsPC-1 cells (KRAS G12D) [5] = assay: 3D Cell viability assay in AsPC-1 cells (Biological Example 6); type: cell-based; details: Homo sapiens, ASPC1; AsPC-1 (KRAS G12D) spheroids, 72 hours
# Summary of the method: as §2
# SW1900 cells (KRAS G12D) [6] = assay: 3D Cell viability assay in SW1900 cells (Biological Example 6); type: cell-based; details: Homo sapiens; SW1990 (text: SW1900, KRAS G12D) spheroids, 72 hours
# Summary of the method: as §2
# RKN cells (KRAS G12V) [7] = assay: 3D Cell viability assay in RKN cells (Biological Example 6); type: cell-based; details: RKN (KRAS G12V) spheroids, 72 hours
# Summary of the method: as §2
# [8] = tested on: MKN1 cells (KRAS amplification); assay: 3D Cell viability assay in MKN1 cells (Biological Example 6); type: cell-based; details: Homo sapiens, MKN-1; MKN (MKN1, KRAS amplification) spheroids, 72 hours
# Summary of the method: as §2
# HPAC cells (KRAS G12D) [9] = assay: 3D Cell viability assay in HPAC cells (Biological Example 6); type: cell-based; details: Homo sapiens, HPAC, 72 h, HPAC (KRAS G12D) spheroids
# Summary of the method: as §2
# [10] = tested on: Capan-2 cells (KRAS G12V); assay: Cell-based pERK HTRF assay in Capan-2 cells (Biological Example 5)
# Summary of the method: as §1
# HPAC cells (KRAS G12D) [11] = assay: Cell-based pERK HTRF assay in HPAC cells (Biological Example 5)
# Summary of the method: as §1
# H358 cells (KRAS G12C) [12] = assay: Cell-based pERK HTRF assay in H358 cells (Biological Example 5)
# Summary of the method: as §1
# H358 cells (KRAS G12C) [13] = assay: 3D Cell viability assay in H358 cells (Biological Example 6); type: cell-based; details: Homo sapiens, NCI-H358; H358 (KRAS G12C) spheroids, 72 hours
# Summary of the method: as §2
# AsPC-1 cells (KRAS G12D) [14] = assay: Cell-based pERK HTRF assay in AsPC-1 cells (Biological Example 5)
# Description: (§3) Biological Example 5: Cell-based PERK HTRF assay in AsPC-1, SW1900, HPAC, Capan-2, RKN, H358, HCT116, KP-2, H1573, A549, MKN1, and HT1080 cells
# (§4) The inhibition of ERK phosphorylation, as measured using the HTRF Advanced Phospho-ERK 1/2 (Thr202/Tyr204) Detection Assay kit (Perkin Elmer), was used to determine the effectiveness of test compounds in disrupting KRAS-driven protein/effector signaling in cells.
# (§5) On day 1, cells were seeded into 96-well plates at 2.5×10^4 cells/well in 100 μL of complete growth media supplemented with 10% fetal bovine serum (FBS) and incubated at 37° C., in the presence of 5% CO2.
# (§6) On day 2, cells were treated with compounds diluted in DMSO at 0.25% final DMSO concentration. Compounds were dosed in a 9-point concentration curve with three-fold dilution between concentrations. Cells were incubated in the presence of compound for two hours at 37° C. Following this treatment period, cells were harvested by aspirating the media, adding 40 μL of kit-supplied 1x lysis buffer per well, and shaking for 30 minutes at 250 rpm at room temperature.
# (§7) Following cell lysis, samples were homogenized by pipetting up and down twenty times and 16 μL of cell lysate per well was transferred from the 96-well cell culture plate to two wells of a 384-well detection plate. A complete detection buffer was prepared by diluting D2 and Eu Cryptate antibodies 1:20 in kit-provided detection solution, 4 μL of complete detection buffer was then added to each well with lysate. Plates were incubated with gentle rocking for 24 hours at 4° C.
# (§8) Following this incubation period, plates were centrifuged at 500×g for one minute and analyzed on a CLARIOstar plate reader. Data was imported into Microsoft Excel and the signal from the 665 nm channel was divided by the signal from the 620 nm channel. % pERK was calculated as: […]
# (§9) Data was imported to the Prism software package (Graphpad) and EC50 values were calculated using the log (inhibitor) vs, response—variable slopc (Four parameters) model.
# KP-2 cells (KRAS G12R) = assay: Cell-based pERK HTRF assay in KP-2 cells (Biological Example 5); details: KP-2 (KRAS G12R) cells
# Description: as §3, §4, §5, §6, §7, §8, §9
# HT1080 cells (NRAS) = assay: Cell-based pERK HTRF assay in HT1080 cells (Biological Example 5)
# Description: as §3, §4, §5, §6, §7, §8, §9
# HCT116 cells (KRAS G13D) = assay: Cell-based pERK HTRF assay in HCT116 cells (Biological Example 5); details: Homo sapiens, HCT-116
# Description: as §3, §4, §5, §6, §7, §8, §9
# H1573 cells (KRAS G12A) = assay: Cell-based pERK HTRF assay in H1573 cells (Biological Example 5); details: Homo sapiens, NCI-H1573
# Description: as §3, §4, §5, §6, §7, §8, §9
# [15] = Homo sapiens, MKN-1, MKN cells (MKN1, KRAS amplification)
# [16] = Homo sapiens, SW1990, SW1990 cells (text: SW1900, KRAS G12D)
# [17] = Homo sapiens, Capan-2, Capan-2 (KRAS G12V) cells
# [18] = Homo sapiens, NCI-H358, H358 (KRAS G12C) cells
# [19] = Homo sapiens, ASPC1, AsPC-1 (KRAS G12D) cells
Structure (SMILES),"IC50 [1, 15] [nM]",IC50 (RKN cells (KRAS G12V) [2]) [nM],IC50 (SW1900 cells (KRAS G12D) [4]; [16]) [nM],IC50 (AsPC-1 cells (KRAS G12D) [5]) [nM],IC50 (SW1900 cells (KRAS G12D) [6]) [nM],IC50 [8] [nM],"IC50 [10, 17] [nM]","IC50 (HPAC cells (KRAS G12D) [11]; Homo sapiens, HPAC) [nM]",IC50 (H358 cells (KRAS G12C) [12]; [18]) [nM],IC50 (H358 cells (KRAS G12C) [13]) [nM],IC50 (AsPC-1 cells (KRAS G12D) [14]; [19]) [nM],"IC50 (HT1080 cells (NRAS); Homo sapiens, HT-1080) [nM]",IC50 [3] [nM],IC50 (RKN cells (KRAS G12V) [7]) [nM],IC50 (HPAC cells (KRAS G12D) [9]) [nM],other results
"CCN(c1nc(OC[C@@]23CCCN2C[C@H](F)C3)nc2c(F)c(-c3ccc(F)c4sc(N)c(C#N)c34)c(C(F)(F)F)cc12)[C@H]1C[C@@H]2COC(=O)N2C1 (atropisomer, axis not shown) [Compound 519]",≤ 100,≤ 100,≤ 100,≤ 100,≤ 100,≤ 100,≤ 100,100 to 1000,≤ 100,≤ 100,≤ 100,,≤ 100,≤ 100,100 to 1000,
Cc1cc2n(n1)CCN(c1nc(OCC34CCCN3CC(F)C4)nc3c(F)c(-c4ccc(F)c5sc(N)c(C#N)c45)c(C(F)(F)F)cc13)C2 (stereo not shown) [Compound 484],≤ 100,,≤ 100,≤ 100,≤ 100,100 to 1000,≤ 100,100 to 1000,≤ 100,≤ 100,≤ 100,> 1000,≤ 100,,100 to 1000,
CCN(c1nc(OC[C@@]23CCCN2C[C@H](F)C3)nc2c(F)c(-c3ccc(F)c4sc(N)c(C#N)c34)c(C(F)(F)F)cc12)[C@H]1C[C@H](C)N(C(=O)C2CC2)C1 [Compound 470],≤ 100,,≤ 100,≤ 100,≤ 100,≤ 100,≤ 100,100 to 1000,≤ 100,≤ 100,≤ 100,> 1000,≤ 100,,> 1000,
N#Cc1c(N)sc2c(F)ccc(-c3c(C(F)(F)F)cc4c(N5CCn6nc(N7CCOCC7)cc6C5)nc(OC[C@@]56CCCN5C[C@H](F)C6)nc4c3F)c12 [Compound 485],≤ 100,,≤ 100,≤ 100,≤ 100,100 to 1000,≤ 100,100 to 1000,≤ 100,≤ 100,100 to 1000,> 1000,≤ 100,,100 to 1000,
CCOC(=O)N1CC[C@H](N(CC)c2nc(OC[C@@]34CCCN3C[C@H](F)C4)nc3c(F)c(-c4ccc(F)c5sc(N)c(C#N)c45)c(C(F)(F)F)cc23)C1 [Compound 467],≤ 100,,≤ 100,≤ 100,≤ 100,≤ 100,≤ 100,100 to 1000,≤ 100,≤ 100,100 to 1000,> 1000,≤ 100,,> 1000,
"CCN(c1nc(OC[C@@]23CCCN2C[C@H](F)C3)nc2c(F)c(-c3ccc(F)c4sc(N)c(C#N)c34)c(C(F)(F)F)cc12)[C@H]1CCN(C(=O)C(C)C)C1 (atropisomer, axis not shown) [Compound 468]",,,,,,,,,,,,,,,,"IC50 ([1]; MKN cells (MKN1, KRAS amplification)): > 1000 nM; IC50 (SW1900 cells (KRAS G12D) [4]; SW1990 cells (text: SW1900, KRAS G12D)): > 1000 nM; IC50 (HT1080 cells (NRAS)): > 1000 nM; IC50 ([10]; Capan-2 (KRAS G12V) cells): > 1000 nM; IC50 (HPAC cells (KRAS G12D) [11]): > 1000 nM; IC50 (H358 cells (KRAS G12C) [12]; H358 (KRAS G12C) cells): > 1000 nM; IC50 (AsPC-1 cells (KRAS G12D) [14]; AsPC-1 (KRAS G12D) cells): > 1000 nM"

# Further lines, with some results ahead:
"IC50 [1, 15] [nM]",IC50 (RKN cells (KRAS G12V) [2]) [nM],IC50 (SW1900 cells (KRAS G12D) [4]; [16]) [nM],IC50 (AsPC-1 cells (KRAS G12D) [5]) [nM],IC50 (SW1900 cells (KRAS G12D) [6]) [nM],IC50 [8] [nM],"IC50 [10, 17] [nM]","IC50 (HPAC cells (KRAS G12D) [11]; Homo sapiens, HPAC) [nM]",IC50 (H358 cells (KRAS G12C) [12]; [18]) [nM],IC50 (H358 cells (KRAS G12C) [13]) [nM],IC50 (AsPC-1 cells (KRAS G12D) [14]; [19]) [nM],"IC50 (HT1080 cells (NRAS); Homo sapiens, HT-1080) [nM]",Structure (SMILES),IC50 [3] [nM],IC50 (RKN cells (KRAS G12V) [7]) [nM],IC50 (HPAC cells (KRAS G12D) [9]) [nM],other results
≤ 100,,≤ 100,100 to 1000,≤ 100,≤ 100,≤ 100,≤ 100,≤ 100,≤ 100,100 to 1000,> 1000,"CCC(=O)N1CC[C@@H](N(CC)c2nc(OC[C@@]34CCCN3C[C@H](F)C4)nc3c(F)c(-c4ccc(F)c5sc(N)c(C#N)c45)c(C(F)(F)F)cc23)[C@H]1C (atropisomer, axis not shown) [Compound 523]",≤ 100,,> 1000,IC50 (KP-2 cells (KRAS G12R)): ≤ 100 nM; IC50 (HCT116 cells (KRAS G13D)): ≤ 100 nM; IC50 (H1573 cells (KRAS G12A)): ≤ 100 nM
≤ 100,,≤ 100,≤ 100,≤ 100,≤ 100,≤ 100,≤ 100,≤ 100,≤ 100,≤ 100,> 1000,"CCN(c1nc(OC[C@@]23CCCN2C[C@H](F)C3)nc2c(F)c(-c3ccc(F)c4sc(N)c(C#N)c34)c(C(F)(F)F)cc12)[C@H]1CCS(=O)(=O)C1 (atropisomer, axis not shown) [Compound 492]",≤ 100,,≤ 100,
≤ 100,≤ 100,≤ 100,≤ 100,≤ 100,≤ 100,≤ 100,≤ 100,≤ 100,≤ 100,≤ 100,,"CCN(c1nc(OC[C@@]23CCCN2C[C@H](F)C3)nc2c(F)c(-c3ccc(F)c4sc(N)c(C#N)c34)c(C(F)(F)F)cc12)[C@H]1C[C@H]2CN(C)C(=O)N2C1 (atropisomer, axis not shown; (aS)) [Compound 543, 2-amino-4-((S)-4-(ethyl((6S,7aS)-2-methyl-3-oxohexahydro-1H-pyrrolo[1,2-c]imidazol-6-yl)amino)-8-fluoro-2-(((2R,7aS)-2-fluorotetrahydro-1H-pyrrolizin-7a(5H)-yl)methoxy)-6-(trifluoromethyl)quinazolin-7-yl)-7-fluorobenzo[b]thiophene-3-carbonitrile]",≤ 100,≤ 100,≤ 100,
≤ 100,≤ 100,≤ 100,≤ 100,≤ 100,≤ 100,≤ 100,100 to 1000,≤ 100,≤ 100,≤ 100,,"CCN(c1nc(OC[C@@]23CCCN2C[C@H](F)C3)nc2c(F)c(-c3ccc(F)c4sc(N)c(C#N)c34)c(C(F)(F)F)cc12)[C@H]1C[C@H]2COC(=O)N2C1 (atropisomer, axis not shown; (aS)) [Compound 518, 2-amino-4-((S)-4-(ethyl((6S,7aS)-3-oxotetrahydro-1H,3H-pyrrolo[1,2-c]oxazol-6-yl)amino)-8-fluoro-2-(((2R,7aS)-2-fluorotetrahydro-1H-pyrrolizin-7a(5H)-yl)methoxy)-6-(trifluoromethyl)quinazolin-7-yl)-7-fluorobenzo[b]thiophene-3-carbonitrile]",≤ 100,≤ 100,≤ 100,
